Columns and labels:
caspase-1 = test: Retinal cleaved caspase-1 immunoblot in mouse RRD model (inflammasome activation); assay type: in vivo, mice
Protocol: (§1) RRD was induced in mice via subretinal injection (SRI) of 1% carboxymethylcellulose (CMC). To simulate outcomes following the clinical management of RRD, optimal conditions were determined in which SRI of CMC induced spontaneous retinal reattachment (SRR) over 10 days (RRD/SRR). K-9, 3TC, or AZT was administered via intraperitoneal (IP) injection. Inflammasome activation was monitored by cleaved caspase-1 abundance, and photoreceptor death was assessed by TUNEL staining. Retinal function was assessed by full-field scotopic electroretinography (ERG).
(§2) A persistent RRD model was established by subretinal injection (SRI) of 3 μl 1% carboxymethyl cellulose (CMC; Refresh Liquigel, Allergan, Irvine, CA, USA). The model of RRD/SRR was achieved by SRI of 3 μl 0.03% CMC. SRIs were performed as previously described (23) using a 35-gauge needle (Ito Co., Fuji, Japan).
(§3) NRTIs and K-9 were delivered via intraperitoneal (IP) injection in equimolar amounts. Lamivudine (3TC, 50 mg/kg) or azidothymidine (AZT, 60 mg/kg) was injected twice daily (SelleckChem, Houston, TX, USA). Kamuvudine K-9 (3-methyl-3TC) was synthesized as previously described (21) and administered either at a low dose (K-9L; 90 mg/kg daily) or a high dose (K-9H; 60 mg/kg twice daily, equimolar to NRTI doses). IP injection of phosphate buffered saline (PBS) was used as control. […]

photoreceptors = test: TUNEL staining of retinal outer nuclear layer in mouse RRD model (photoreceptor death); assay type: in vivo, mice
Protocol: as §1, §2, §3

[1] = system: retinal electrical function; test: Full-field scotopic ERG in RRD/SRR mouse model; assay type: in vivo, mice
Protocol: FIGS. 7A-7D. K-9 improves ERG functional outcomes in RRD/SRR model (A) Experiment overview: the RRD/SRR model was established day 0 (SRI of 3 μl 0.03% CMC). K-9 (60 mg/kg) or PBS was administered days 0-10 twice daily IP. Scotopic ERG was measured at baseline, as well as days 7, 11, and 14. In 7A-D, n=10-12 per group. (B) ERG waveforms representative of the K-9 and PBS groups, at baseline and day 14. (C) Amplitudes of a- and b-waves over time in the K-9 (red) and PBS (blue) groups at the stimulation intensity of 1.0 log cd sec/m2. […] Data (7C-D) is represented as mean±SEM. (D) AA from baseline for PBS (blue) and K-9 (red) groups.
as §1, with “K-9, 3TC, or AZT was administered via intraperitoneal (IP) injection.” left out, “(ERG). […]” for “(ERG).”
ERG was recorded at baseline, as well as days 7, 11, and 14 following SRI of CMC. Mice (n=6) were dark adapted overnight, and then ERG was measured using Ganzfeld ERG (Phoenix Laboratories). […] Responses were recorded to white-flash stimuli ranging from −1.7 to 1.0 log cd s/m2. […]

retinal function = test: Scotopic ERG in rd10 mouse model of retinal neuronal degeneration; assay type: in vivo; details: rd10 mice; 60 mg/kg twice daily IP, P15 until P28; vs vehicle (PBS)
Protocol: (§4) FIG. 8. K-9 protects retinal function. Starting at postnatal day 15 (P15) until P28, rd10 mice were treated with K-9 at 60 mg/kg twice daily via intraperitoneal injection or with an equal volume of vehicle (PBS). Retinal function was monitored with scotopic electroretinography (ERG).
as §4, with “K-9” for “FIG. 8. K-9”, “function in the rd10 mouse model of retinal neuronal degeneration. rd10 is an autosomal missense R560C mutation in the Pde6b gene, which results in a recessively inherited retinal neuronal degeneration (FIG. 8).” for “function.”

For `CCOCC1OC(n2ccc(N(CC)CC)nc2=O)CS1` (stereo not shown) [K-9, 4-(diethylamino)-1-[2-(ethoxymethyl)-1,3-oxathiolan-5-yl]-1,2-dihydropyrimidin-2-one], the “degree of suppression of caspase-1 activation” value (caspase-1; day 3 RRD model, IP, mean±SEM, K-9 versus NRTIs P<0.05) was 84%±1%, the “retinal cleaved caspase-1” value (caspase-1; three days after inducing RRD (SRI 3 μl 1% CMC), IP treatment, compared with PBS-treated mice) was “dose-dependent and complete reduction” and the “degree of photoreceptor protection” value (photoreceptors; day 3 RRD model, TUNEL, IP, mean±SEM, K-9 versus NRTIs P<0.05) was 56%±7%. For the same compound, the “number of TUNEL+ cells in the ONL of the retina” value (photoreceptors; three days after inducing RRD, IP treatment, compared with PBS-treatment) was “dose-dependent reduction”, the “retinal electrical function (ERG a- and b-wave amplitudes)” value ([1]; RRD/SRR model (SRI 3 μl 0.03% CMC), K-9 60 mg/kg twice daily IP days 0-10, ERG days 7-14, vs PBS) was “preserves retinal electrical function” and the “ERG parameters following retinal reattachment” value ([1]; RRD/SRR model, K-9 administered during the period of retinal detachment) was “improvement”. For the same compound, the “ERG a-wave and b-wave” value (retinal function) was “completed protection”.

From patent US20260083768A1, “INFLAMMASOME INHIBITION FOR NEUROPROTECTION” (University of Virginia Patent Foundation, priority 2022, published 2026)
